From patent publication US11667602B2, “Compounds and their use” (AstraZeneca AB, priority 2020, dated 2023)

Target: T1, human RXFP1 (Homo sapiens, UniProt Q9HBX9)
T1 sequence (Q9HBX9 1-757): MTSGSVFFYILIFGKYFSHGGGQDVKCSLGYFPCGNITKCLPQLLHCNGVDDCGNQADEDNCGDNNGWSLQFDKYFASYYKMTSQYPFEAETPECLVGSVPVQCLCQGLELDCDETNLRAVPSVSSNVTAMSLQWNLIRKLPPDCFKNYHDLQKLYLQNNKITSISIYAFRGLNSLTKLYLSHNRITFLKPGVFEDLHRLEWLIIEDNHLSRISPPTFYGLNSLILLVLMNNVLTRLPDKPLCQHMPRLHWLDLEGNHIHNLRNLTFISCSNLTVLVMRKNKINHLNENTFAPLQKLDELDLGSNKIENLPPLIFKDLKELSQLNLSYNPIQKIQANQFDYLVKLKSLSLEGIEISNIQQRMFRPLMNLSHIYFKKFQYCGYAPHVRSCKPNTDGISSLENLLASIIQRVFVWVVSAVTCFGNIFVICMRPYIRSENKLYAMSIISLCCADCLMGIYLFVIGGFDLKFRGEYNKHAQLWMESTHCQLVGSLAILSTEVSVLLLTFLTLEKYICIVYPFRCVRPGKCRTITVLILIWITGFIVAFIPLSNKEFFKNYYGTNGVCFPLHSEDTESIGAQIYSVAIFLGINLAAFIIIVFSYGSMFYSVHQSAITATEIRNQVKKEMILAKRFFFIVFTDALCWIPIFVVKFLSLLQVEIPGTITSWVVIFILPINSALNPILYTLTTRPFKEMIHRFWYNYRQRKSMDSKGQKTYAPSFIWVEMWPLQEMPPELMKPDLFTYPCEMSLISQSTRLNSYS
Experiment: RXFP1 Hu cAMP (Test A)
Assay type: cell-based
Design: expressed in transfected cells; host or cells: Jump-In T-REx CHO-K1 cells (ThermoFisher), induced with 10 ng/ml doxycycline for 24 h
Conditions: RXFP1 Hu cAMP; for EC50: read-out: Test A EC50
Method in brief: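 Read-out is HTRF signal, inversely proportional to cAMP, converted to cAMP amount by standard curve. Stimulation occurred in inducible CHO-K1 cells expressing the human receptor with phosphodiesterases blocked by 0.5 mM IBMX.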

Compound | Test A Sinf [%] | EC50 [nM]
COc1cc(F)c(-c2ccc([C@@H]3C[C@H]3C(=O)O)nc2)cc1C(=O)N[C@@H]1[C@H]2CC[C@H](C2)[C@@H]1C(=O)Nc1cccc(S(=O)(=O)C(F)(F)F)c1 (single isomer, unassigned) [Example 262, (1R*,2R*)-2-(5-(2-Fluoro-4-methoxy-5-(((1S,2R,3S,4R)-3-((3-((trifluoromethyl)sulfonyl)phenyl)carbamoyl)bicyclo[2.2.1]heptan-2-yl)carbamoyl)phenyl)pyridin-2-yl)cyclopropane-1-carboxylic acid] | 95 | 26
COc1cc(F)c(-c2ccc(C(N)(CO)CO)cc2)cc1C(=O)N[C@@H]1[C@H]2CC[C@H](C2)[C@@H]1C(=O)Nc1cccc(S(=O)(=O)C(F)(F)F)c1 [Example 265, (1R,2S,3R,4S)-3-(4′-(2-Amino-1,3-dihydroxypropan-2-yl)-6-fluoro-4-methoxy-[1,1′-biphenyl]-3-carboxamido)-N-(3-((trifluoromethyl)sulfonyl)phenyl)bicyclo[2.2.1]heptane-2-carboxamide] | 78 | –
COc1ccc(Cc2ccccc2C(=O)O)cc1C(=O)N[C@H]1[C@@H](C(=O)Nc2cccc(S(=O)(=O)C(F)(F)F)c2)[C@@H]2C=C[C@H]1C2 (racemic) [Example 223, rac-2-(4-Methoxy-3-(((1R,2R,3S,4S)-3-((3-((trifluoromethyl)sulfonyl)phenyl)carbamoyl)bicyclo[2.2.1]hept-5-en-2-yl)carbamoyl)benzyl)benzoic acid] | – | > 40000
COc1cc(F)c(OC[C@H]2C[C@@H](C(=O)O)C2)cc1C(=O)N[C@@H]1[C@@H]2CC[C@@H](C2)[C@@H]1C(=O)Nc1cccc(S(=O)(=O)C(F)(F)F)c1 [Example 473, (1S,3s)-3-((2-Fluoro-4-methoxy-5-(((1R,2R,3S,4S)-3-((3-((trifluoromethyl)sulfonyl)phenyl)carbamoyl)bicyclo[2.2.1]heptan-2-yl)carbamoyl)phenoxy)methyl)cyclobutane-1-carboxylic acid] | 104 | 140
COc1cc(C#N)c(O[C@H]2CC[C@@](C)(C(=O)O)CC2)cc1C(=O)N[C@@H]1[C@H]2CC[C@H](C2)[C@@H]1C(=O)NC(C)(C)c1ccccc1 [Example 108] | 106 | 340
COc1cc(F)c(-c2ccc(C(=O)O)cn2)cc1C(=O)N[C@H]1[C@@H](C(=O)Nc2cccc(S(=O)(=O)C(F)(F)F)c2)[C@@H]2C=C[C@H]1C2 (racemic) [Example 278] | 104 | –
COc1cc(C#N)c(O[C@H]2CC[C@@](C)(C(=O)O)CC2)cc1C(=O)N[C@@H]1[C@H]2CC[C@H](C2)[C@@H]1C(=O)NC1CCC(C)(C)CC1 [Example 128] | 88 | 46
COc1cc(F)c(-c2nnc(CCC(=O)O)s2)cc1C(=O)N[C@H]1C(C(=O)Nc2cccc(S(=O)(=O)C(F)(F)F)c2)[C@@H]2CC[C@H]1C2 (stereo partly drawn) [Example 322, 3-(5-(2-Fluoro-4-methoxy-5-(((1S,2R,3S,4R)-3-((3-((trifluoromethyl)sulfonyl)phenyl)carbamoyl)bicyclo[2.2.1]heptan-2-yl)carbamoyl)phenyl)-1,3-,4-thiadiazol-2-yl)propanoic acid] | 107 | 800
COc1cc(F)c(O[C@H]2CC[C@@](C)(C(=O)O)CC2)cc1C(=O)N[C@@H]1[C@H]2CC[C@H](C2)[C@@H]1C(=O)NCC(C)(C)O [Example 611] | – | > 40000
COc1cc(F)c(O[C@H]2CC[C@@](C)(C(=O)O)CC2)cc1C(=O)N[C@@H]1[C@H]2CC[C@H](C2)[C@@H]1C(=O)NCC(F)(F)C(F)(F)F [Example 618] | 93 | 100
COc1cc(F)c(-c2cccc([C@@H](C(=O)O)N(C)C)c2)cc1C(=O)N[C@@H]1[C@H]2CC[C@H](C2)[C@@H]1C(=O)Nc1cccc(S(=O)(=O)C(F)(F)F)c1 (racemic) [Example 294] | 95 | 370
COc1cc(F)c(O[C@H]2CC[C@@](C)(C(=O)O)CC2)cc1C(=O)N[C@@H]1[C@H]2CC[C@H](C2)[C@@H]1C(=O)NCC(C)(C)CO [Example 612] | 119 | –
CCCCCCNC(=O)[C@H]1[C@@H]2CC[C@@H](C2)[C@H]1NC(=O)c1cc(O[C@H]2CC[C@@](C)(C(=O)O)CC2)c(C#N)cc1OC [Example 117] | 100 | 110
(1R,4s)-4-(2-Fluoro-4-methoxy-5-(((3S*,4R*)-4-(((1-methylcyclobutyl)methyl)carbamoyl)tetrahydrofuran-3-yl)carbamoyl)phenoxy)-1-(hydroxymethyl)cyclohexane-1-carboxylic acid [Example 581] | 94 | –
COc1cc(F)c([C@H]2CC[C@H](C(=O)O)CC2)cc1C(=O)N[C@@H]1[C@H]2CC[C@H](C2)[C@@H]1C(=O)Nc1cccc(S(=O)(=O)C(F)(F)F)c1 [Example 269, (1R,4r)-4-(2-fluoro-4-methoxy-5-(((1S,2R,3S,4R)-3-((3-((trifluoromethyl)sulfonyl)phenyl)carbamoyl)bicyclo[2.2.1]heptan-2-yl)carbamoyl)phenyl)cyclohexane-1-carboxylic acid] | 44 | 2900
O=C(O)c1ccc(-c2cc(C(=O)N[C@H]3[C@@H](C(=O)Nc4cccc(S(=O)(=O)C(F)(F)F)c4)[C@@H]4C=C[C@H]3C4)ccc2F)cc1 (racemic) [Example 305, rac-2′-Fluoro-5′-(((1R,2R,3S,4S)-3-((3-((trifluoromethyl)sulfonyl)phenyl)carbamoyl)bicyclo[2.2.1]hept-5-en-2-yl)carbamoyl)-[1,1′-biphenyl]-4-carboxylic acid] | – | > 40000
COc1cc(C#N)c(O[C@H]2CC[C@@](C)(C(=O)O)CC2)cc1C(=O)N[C@@H]1CC[C@@H]1C(=O)NCC1(C)CCC1 (racemic) [Example 348] | 101 | 560
COc1cc(F)c(-c2cc(C(=O)O)ccn2)cc1C(=O)N[C@H]1[C@@H](C(=O)Nc2cccc(S(=O)(=O)C(F)(F)F)c2)[C@@H]2C=C[C@H]1C2 (racemic) [Example 277] | 122 | 7400
COCCOc1cc(F)c(O[C@H]2CC[C@@](C)(C(=O)O)CC2)cc1C(=O)N[C@@H]1[C@H]2CC[C@H](C2)[C@@H]1C(=O)NCC1(C)CCC1 [Example 391] | 99 | 110
COc1cc(C#N)c(O[C@H]2CC[C@@](C)(C(=O)O)CC2)cc1C(=O)N[C@@H]1[C@H]2CC[C@H](C2)[C@@H]1C(=O)NCc1ccc(F)c(F)c1 [Example 123] | 107 | 720
COc1cc(F)c(O[C@H]2CC[C@@](C)(C(=O)O)CC2)cc1C(=O)N[C@@H]1C[C@H](OC)C[C@@H]1C(=O)Nc1cccc(S(=O)(=O)C(F)(F)F)c1 (stereo in doubt) [Example 335] | 104 | 540
COC[C@]1(C(=O)O)CC[C@@H](Oc2cc(C(=O)N[C@@H]3[C@H]4CC[C@H](C4)[C@@H]3C(=O)NCC(C)(C)C)c(OC)cc2F)CC1 [Example 481] | 96 | –
COc1cc(C#N)c(O[C@H]2CC[C@@](C)(C(=O)O)CC2)cc1C(=O)N[C@@H]1CCCC[C@@H]1C(=O)NCC1(C)CCC1 [Example 361] | 91 | 780
COc1cc(C#N)c(O[C@H]2CC[C@@](C)(C(=O)O)CC2)cc1C(=O)N[C@@H]1[C@H]2CC[C@H](C2)[C@@H]1C(=O)N[C@@H](C)c1ccccc1 (racemic) [Example 140] | 95 | 84
COc1cc(F)c(O[C@H]2CC[C@@H](C(=O)O)CC2)cc1C(=O)N[C@@H]1[C@@H]2C[C@@H]([C@@H](O)[C@H]2O)[C@@H]1C(=O)Nc1cccc(S(=O)(=O)C(F)(F)F)c1 [Example 494] | 90 | 6900
COc1cc(F)c(-c2cncc(C(=O)O)c2)cc1C(=O)N[C@H]1[C@@H](C(=O)Nc2cccc(S(=O)(=O)C(F)(F)F)c2)[C@@H]2C=C[C@H]1C2 (racemic) [Example 228] | 110 | –
COc1cc(F)c(O[C@H]2CC[C@@](C)(C(=O)O)CC2)cc1C(=O)N[C@@H]1COC[C@@H]1C(=O)Nc1ccc(F)c(S(F)(F)(F)(F)F)c1 (racemic) [Example 344] | 93 | 34
COc1cc(C#N)c(O[C@H]2CC[C@@](C)(C(=O)O)CC2)cc1C(=O)Nc1cc(C)ccc1C(=O)NCc1cccc(F)c1 [Example 166, (1s,4s)-4-(2-Cyano-5-((2-((3-fluorobenzyl)carbamoyl)-5-methylphenyl)carbamoyl)-4-methoxyphenoxy)-1-methylcyclohexane-1-carboxylic acid] | 137 | 580
COc1cc(F)c(O[C@H]2CC[C@@](C)(C(=O)O)CC2)cc1C(=O)N[C@@H]1[C@H]2CC[C@H](C2)[C@@H]1C(=O)NCC1(F)CCC1 [Example 609] | 108 | 400
